Earlier results on four molecules are cited in patent US11135214B2, “Methods for enhancing the bio availability and exposure of a voltage-gated potassium channel opener” (priority 2018, dated 2021).

Structures are written as SMILES.

Data set [1] has as its system neural membrane excitability. As to conditions: Ziemann et al. 2015; Ossemann et al. 2016; cited from earlier work.
Data set [2] relates to TEP components. As to conditions: TMS-EEG, Premoli et al. 2016; cited from earlier work.
For data set [3] the following is noted: FDA Approved Labeling Text for Potiga; Harris and Murphy 2011; cited from earlier work.
The conditions of data set [4]: Prescott and Evans 2014; cited from earlier work.

Regarding `NC(=O)N1c2ccccc2C=Cc2ccccc21` [carbamazepine], the “motor threshold (at rest and under active muscular contraction)” value (“motor threshold” below) in data set [1] was “increased”.
In the case of `Nc1nnc(-c2cccc(Cl)c2Cl)c(N)n1` [lamotrigine], the “motor threshold” value in data set [1] is “increased”. Besides, in data set [2], the P180 component entry is given as “suppressed” and the “amplitude of the N45” value is “increased”.
In the case of `CC[C@@H](C(N)=O)N1CCCC1=O` [levetiracetam], in data set [2], the P180 component entry is on record as “suppressed” and the “amplitude of the N45” value was “increased”.
Consider `CCOC(=O)Nc1ccc(NCc2ccc(F)cc2)cc1N` [retigabine], for which the “food effect on bioavailability and exposure after oral administration” value in data set [3] is “lack of food effect”. For the same molecule, the “black-box warnings after long term use” value in data set [4] is “discoloration of skin, lips, nails and retinal pigmentary changes”. In addition, the “motor threshold” value in data set [1] is “increased”.
